This is an account of results in US11059800B2, “Dehydroleucodine derivatives and uses thereof” (Bioventures, LLC, priority 2013, dated 2021).

The nature of one data set: Log P octanol/water. The conditions noted are these: experimentally determined. In kind it is physicochemical.
For the next data set, the system named is SK-OV-3. Briefly: Single dose tumor cell growth inhibition, Ovarian Cancer SK-OV-3. In kind it is cell-based. To be noted: SK-OV-3, single dose 10 μM. From the text:
(§1) DHL is cytotoxic to various leukemia, colon cancer, CNS cancer and prostate cancer cell lines.

In another data set the test system is RPMI-8226. Briefly: Single dose tumor cell growth inhibition, Leukemia RPMI-8226. The format is cell-based. The conditions noted are these: RPMI-8226, single dose 10 μM.
Source text: as §1

A further data set deals with KG-1. Briefly: Cytotoxicity, annexin V/7-AAD viability by flow cytometry, KG-1. In kind it is cell-based, human. The conditions noted are these: KG-1, 48 hours, drug range tested 1.25-160 μM. The procedure:
In order to assess the structure-activity relationship of DHL and its derivatives, DHL and its derivatives were evaluated against eight human leukemia cell lines. Cell lines were cultured in Iscove's Modified Dulbecco's Medium (IMDM) supplemented with 10%˜20% fetal bovine serum (FBS) according to culture conditions indicated by ATCC and 1% penicillin/streptomycin (Pen/Strep) at 37° C. and 5% CO2. […] Cell viability was determined after incubating for 48 hours.
On the technique in general: Flow cytometry measures light scatter and fluorescence of single cells or particles in a stream.

The next data set has as its system NCI-H322M. Description: Single dose tumor cell growth inhibition, Non-Small Cell Lung Cancer NCI-H322M. The format is cell-based. To be noted: single dose 10 μM.
Source text: as §1

The subject of the next data set is SW-620. Briefly: Single dose tumor cell growth inhibition, Colon Cancer SW-620. In kind it is cell-based, human. To be noted: SW-620, single dose 10 μM.
Source text: as §1

Another data set deals with phospho-p65. Briefly: Western blot of phospho-p65 and total p65 in MOLM-13 cells. In kind it is cell-based. The conditions noted are these: 10 or 20 μM, 6 hours. How it is done: (§2) (FIG. 8A) Graphical representation of the fold changes of HMOX-1 in MOLM-13 cells. Cells were seeded at 0.5 million cells per milliliter and subject to 20 μM of DHL, leucodine, DHL-proline, DHL-piperidine, DHL-morpholine, or parthenolide for 6 hours. RNA was then extracted and quantitative PCR was performed. Experiments were performed in triplicates. Lines represent mean for each specimen, with error bars representing the SD. Fold change was calculated by the delta-delta Ct method. […] (FIG. 8D) Immunoblot for MOLM-13 cells after 6 hours of treatment with either DHL or PTL with 10 or 20 μM. Blot was probed for phospho-p65 and p65 antibodies. Total p65 is shown as the loading control.

The test system of another data set is THP-1. Description: Cytotoxicity, annexin V/7-AAD viability by flow cytometry, THP-1. In kind it is cell-based, human. The conditions noted are these: THP-1, 48 hours, drug range tested 1.25-160 μM. The procedure:
In order to assess the structure-activity relationship of DHL and its derivatives, DHL and its derivatives were evaluated against eight human leukemia cell lines. Cell lines were cultured in Iscove's Modified Dulbecco's Medium (IMDM) supplemented with 10%˜20% fetal bovine serum (FBS) according to culture conditions indicated by ATCC and 1% penicillin/streptomycin (Pen/Strep) at 37° C. and 5% CO2. The cells were seeded into 96-well plates and kept at a concentration of 0.5 million cells per mL. The samples were treated with DHL, Leucodine, DHL-Morpholine, DHL-Proline, DHL-Piperidine, and PTL at varying concentrations in triplicates. Cell viability was determined after incubating for 48 hours. The cells were stained with annexin V-fluorescein isothiocyanate or phycoeritrine (FITC/PE) and 7-aminoactinomycin (7-AAD) to detect phosphatidylserine exposition and cell permeability, respectively. At least 50,000 events were recorded per condition on either an LSR-II or LSR-Fortessa flow cytometer (BD Biosciences). Data analysis was conducted using FlowJo 9.6 software for Mac OS X (TreeStar). Cells that were negative for annexin V and 7-AAD were scored as viable.

Another data set deals with HSPA1A. Description: Quantitative PCR of HSPA1A in MOLM-13 or MV-411 cells. The format is cell-based. The conditions noted are these: 20 μM, 6 hours, MOLM-13 and MV-411 cells. How it is done: as §2
(FIG. 9A) Graphical representation of the fold changes of HMOX-1 in MV-411 cells. Cells were seeded at 0.5 million cells per milliliter and subject to 20 μM of DHL, leucodine, DHL-proline, DHL-piperidine, DHL-morpholine, or parthenolide for 6 hours. RNA was then extracted and quantitative PCR was performed. Experiments were performed in triplicates. Lines represent mean for each specimen, with error bars representing the SD. Fold change was calculated by the delta-delta Ct method. (FIG. 9B) Graphical representation of the fold changes of HSPA1A in MV-411 cells, with the same experimental setup and analysis as FIG. […].
To compare these intracellular effects of DHL and its derivatives, quantitative PCR was performed (FIG. 8 and FIG. 9). MOLM-13 or MV-411 cells were seeded at 0.5 million cells per milliliter. Cells were treated for 6 hours with 20 μM of DHL, Leucodine, DHL-Morpholine, DHL-Proline, DHL-Piperidine or PTL, and then collected. Total RNA was extracted using the Qiashredder and Qiagen Rneasy Mini kits. […] Quantitative PCR was performed using probes for HMOX-1 (Hs01110251_m1), HSPA1A (Hs00359163_s1), and NFKB1 (Hs00765730_m1). […] Single-plex real-time PCR was performed in triplicates in a StepOne plus RealTime PCR system and analyzed with the StepOne Software. Fold change was calculated using the 2-DDCT method described by Livak and Schmittgen.

On to `C=C1C(=O)O[C@@H]2[C@H]3C(C)=CC(=O)C3=C(C)CC[C@@H]12` [DHL, dehydroleucodine], for which, in the data set “Log P octanol/water”, the “Log P octanol/water” value is on record as 2.33 (±0.16). Moreover, the Percent inhibition in the data set on SK-OV-3 is 0.0%; in the data set with RPMI-8226, 31.7%; in the data set on NCI-H322M, 0.0%; in the data set with SW-620 it was 30.0%. In addition, the LD50 in the data set on KG-1 amounted to 18.66 µM; in the data set on THP-1, 16.82 µM. Besides, in the data set with phospho-p65, the “phospho-p65 level by Western blot” value is reported as “significant decrease”. The “HSPA1A expression, fold change” value in the data set on HSPA1A is listed as “upregulated”.
